# Measured values: paper PMC11982978, “Cancer hotspot mutations rewire ERK2 specificity by selective exclusion of docking interactions” (The Journal of Biological Chemistry, 2025)
# Several values for one entry are separate records, joined by “and”; a condition that tells them apart may be missing. Identical values can stand only once. Like-named read-outs stand apart in the source and are kept apart here. Peptide text beside a SMILES is read from it.
# Tests used:
# [1] = biological target: T1, ERK2 WT (Mus musculus, UniProt P63085); assay: Competitive peptide kinase assay (D-peptide inhibition), ERK2 WT; type: biochemical; settings: 10 nM ERK2, 10 μM ATP
# T1 construct: His6; made in house; host or cells: E. coli BL21(DE3), co-expressed with GST-MEK1ΔN3
# T1 sequence (P63085 whole entry): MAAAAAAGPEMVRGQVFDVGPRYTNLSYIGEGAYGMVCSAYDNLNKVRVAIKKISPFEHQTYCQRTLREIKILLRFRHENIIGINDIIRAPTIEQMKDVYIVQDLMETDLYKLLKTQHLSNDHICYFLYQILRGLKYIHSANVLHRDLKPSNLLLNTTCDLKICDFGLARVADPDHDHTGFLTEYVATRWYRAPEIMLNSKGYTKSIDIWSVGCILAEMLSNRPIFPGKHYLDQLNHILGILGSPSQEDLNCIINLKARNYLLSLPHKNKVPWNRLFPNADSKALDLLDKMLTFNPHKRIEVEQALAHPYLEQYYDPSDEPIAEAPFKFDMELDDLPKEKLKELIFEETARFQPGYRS
# Experimental: (§1) We determined relative binding affinities for D-peptides from their potency as competitive inhibitors of WT or mutant ERK2 activity on a D-site-dependent reporter substrate peptide (Table S1, Fig. 3A, S3).
# (§2) Competitive peptide kinase assays were performed with a D-site dependent MAPK reporter substrate peptide (AssayQuant Technologies Inc, #AQT0376) as we reported previously ([15]). Briefly, 5 μM of reporter peptide was mixed with various concentrations of D-peptides in reaction buffer (54 mM HEPES [pH 7.4], 1.2 mM DTT, 0.01% Brij-35, 1% glycerol, 0.2 mg/ml BSA, and 10 mM MgCl2). […] Phosphorylation of the reporter peptide was measured by fluorescence (λex 360 nm, λem 485 nm) in 90 s intervals over 21 min in a Spectra M5 plate reader. Rates were calculated from the linear portion of the reaction progress curve, and data were normalized to maximum (samples lacking competitor peptide) and minimum (control reactions lacking kinase) values. Normalized rates were plotted against D-peptide concentration and fitted into a sigmoidal dose-response curve to determine the IC50 values using GraphPad Prism (Version 9.3.0).
# [2] = biological target: T2, ERK2 R133K (Mus musculus, UniProt P63085, R133K); assay: Competitive peptide kinase assay (D-peptide inhibition), ERK2 R133K; type: biochemical; settings: 10 nM ERK2, 10 μM ATP
# T2 construct: His6; made in house; host or cells: E. coli BL21(DE3), co-expressed with GST-MEK1ΔN3
# T2 sequence (P63085 whole entry R133K): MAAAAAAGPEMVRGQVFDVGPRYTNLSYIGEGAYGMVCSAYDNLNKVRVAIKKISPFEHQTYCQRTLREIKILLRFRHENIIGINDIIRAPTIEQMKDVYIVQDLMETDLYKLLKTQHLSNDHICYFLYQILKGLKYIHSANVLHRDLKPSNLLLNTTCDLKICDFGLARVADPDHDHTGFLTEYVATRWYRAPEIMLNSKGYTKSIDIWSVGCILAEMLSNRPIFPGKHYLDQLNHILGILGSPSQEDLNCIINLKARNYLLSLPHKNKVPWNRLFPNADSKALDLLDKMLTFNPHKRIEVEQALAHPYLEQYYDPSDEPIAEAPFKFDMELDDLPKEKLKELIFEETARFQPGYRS
# Experimental: as §1, §2
# [3] = biological target: T3, ERK2 D319N (Mus musculus, UniProt P63085, D319N); assay: Competitive peptide kinase assay (D-peptide inhibition), ERK2 D319N; type: biochemical; settings: Table S1, 5 μM reporter peptide, 10 nM ERK2, 10 μM ATP, three independent experiments
# T3 construct: His6; made in house; host or cells: E. coli BL21(DE3), co-expressed with GST-MEK1ΔN3
# T3 sequence (P63085 whole entry D319N): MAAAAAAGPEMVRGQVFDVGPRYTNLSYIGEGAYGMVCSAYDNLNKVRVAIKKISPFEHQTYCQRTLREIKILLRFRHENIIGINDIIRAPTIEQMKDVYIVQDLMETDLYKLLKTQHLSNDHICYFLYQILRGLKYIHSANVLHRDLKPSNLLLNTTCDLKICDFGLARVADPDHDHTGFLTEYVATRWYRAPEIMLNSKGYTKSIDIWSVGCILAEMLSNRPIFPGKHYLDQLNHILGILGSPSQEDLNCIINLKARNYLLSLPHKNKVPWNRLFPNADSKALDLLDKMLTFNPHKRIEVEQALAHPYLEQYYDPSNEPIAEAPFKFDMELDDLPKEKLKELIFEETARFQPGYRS
# Experimental: as §1, §2
# [4] = biological target: T4, ERK2 E322K (Mus musculus, UniProt P63085, E320K); assay: Competitive peptide kinase assay (D-peptide inhibition), ERK2 E322K; type: biochemical; settings: 10 nM ERK2, 10 μM ATP
# T4 construct: His6; made in house; host or cells: E. coli BL21(DE3), co-expressed with GST-MEK1ΔN3
# T4 sequence (P63085 whole entry E320K): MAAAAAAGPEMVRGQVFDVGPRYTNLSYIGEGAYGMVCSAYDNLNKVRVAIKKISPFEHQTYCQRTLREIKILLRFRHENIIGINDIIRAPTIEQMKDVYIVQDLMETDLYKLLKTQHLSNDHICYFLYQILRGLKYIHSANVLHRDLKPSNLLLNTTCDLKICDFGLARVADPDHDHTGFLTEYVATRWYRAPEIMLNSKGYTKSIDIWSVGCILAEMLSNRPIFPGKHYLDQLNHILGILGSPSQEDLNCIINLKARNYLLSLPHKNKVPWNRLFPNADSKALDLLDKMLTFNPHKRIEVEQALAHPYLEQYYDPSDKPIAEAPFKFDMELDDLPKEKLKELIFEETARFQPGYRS
# Experimental: as §1, §2
# [5] = system: WT ERK2; assay: Y2H D-site library screen, WT ERK2; type: cell-based, rat; parameters: key: ES = slope of ln(Ft/F0) vs number of yeast population doublings; settings: mutant ES is the combined average ES from the D319N and E320K screens
# From the text: To examine how cancer-associated CD site mutations affect the scope of ERK2 docking interactions, we adopted a Y2H strategy that we previously applied to define the D-site interactome of WT ERK2 ([15]). This system reports on interactions between ERK2 and a fragment of its substrate ELK1 that harbors a docking site essential for binding (Fig. 1C). The system thus evaluates the binding of potential sequences by substituting them for the native ELK1 docking site. We transformed Y2H strains with a bait plasmid expressing the Gal4 DNA-binding domain (DBD) fused to WT or CD mutant forms of rat ERK2 (R133K, D319N or E320K, equivalent respectively to human R135K, D321N and E322K), along with a prey plasmid expressing Gal4 activation domain (AD) fused to the ELK1 fragment harboring various docking site sequences. We then assayed these strains for growth on solid media under non-selective (+His) and selective conditions (−His) to detect interactions (Fig. 1D).
# We previously used the Y2H system to screen WT ERK2 against a pooled library of 11,756 ELK1 variants incorporating potential docking sites from the human proteome ([15]). To identify interacting sequences either gained or lost upon ERK2 CD site mutation, we screened the same library against ERK2^D319N and ERK2^E320K. Yeast expressing ERK2 mutant bait plasmids were transformed with the ELK1 library pool and subjected to competitive growth under selective (−His) and non-selective conditions (+His) in parallel. Cultures were sampled periodically over ∼7 population doublings. The DNA sequence encoding the variable docking site region was PCR amplified and analyzed by next-generation sequencing (Fig. 2A, Dataset S1). The change in sequence abundance over time was fitted to an exponential function to assign an enrichment score (ES) to each docking site, where a higher ES indicates a greater increase in sequence abundance as the population grows. A significant enrichment of docking site sequences was observed only under selective conditions (Figs. 2B, S1). For each mutant, we observed generally good reproducibility across three independently conducted screens albeit with some sequences enriched in only a single replicate (Fig. S2, A and B). Average ES scores for the E320K and D319N mutant screens were better correlated with each other (R = 0.83) than were average ES scores for either mutant compared to WT ERK2 (R = 0.67 for WT versus D319N, R = 0.63 for WT versus E320K) (Fig. S2C).
# To compare sequences selected by CD mutants with those selected by WT ERK2, we defined those sequences with an ES equal to or higher than three standard deviations from the mean (Z > 3) as hits. Using this cutoff, we obtained 121, 127, and 153 hits sequences from the WT, D319N, and E320K screens, respectively (Fig. 2C, Dataset S2).
# Yeast harboring pGBT9-ERK2^E320K or pGBT9-ERK2^D319N were transformed with the pGADGH-ELK1 D-site library plasmid pool. Transformants (10–40 colonies per library component) were suspended in SD-Leu-Trp media, diluted to an OD600 of 0.1, and cultured in a shaking incubator at 30 °C to an OD600 of 1.0. The resulting culture was used to initiate a competitive selection screen. Cell growth, sample collection and data analysis were performed exactly as described previously for WT ERK2 ([15]). The frequency (F) of each D-site sequence at a given time point (t) was calculated by dividing the number of reads by the total read count for all sequences. For each sequence, a plot of ln(Ft/F0) as a function of the number of yeast population doublings was fit to a line, and the enrichment score (ES) for that sequence was defined as the slope of this line. Illumina sequencing reads, calculated ES, and Z scores for each screen are provided in Dataset S1.
# [6] = system: WT ERK2; settings: selective conditions (-His); hits Z > 3; average of three screens; cited from earlier work
# From the text: Supplement mmc2.xlsx, sheet "WT Hits" | column: Z-score
# [7] = Table S1, 5 μM reporter peptide, three independent experiments
# [8] = Table 2, 5 μM D-site dependent reporter peptide, pH 7.4, fluorescence, mean of three independent replicates
# [9] = Table 2, 5 μM reporter peptide, mean of three independent replicates, read-out: IC50, ERK2 E322 K
Compound,WT ES - mutant ES [5],"Z-score (ES) of hit sequences, WT ERK2 Y2H screen [6]",also measured
CC(C)C[C@H](NC(=O)[C@H](C)NC(=O)[C@@H](N)Cc1ccc(O)cc1)C(=O)N[C@@H](CCC(N)=O)C(=O)N[C@@H](CCC(N)=O)C(=O)N[C@@H](CCCNC(=N)N)C(=O)N[C@@H](CCCNC(=N)N)C(=O)N[C@@H](CC(C)C)C(=O)N[C@@H](CCC(N)=O)C(=O)N[C@@H](Cc1c[nH]cn1)C(=O)N[C@@H](CCCNC(=N)N)C(=O)N[C@@H](CC(C)C)C(=O)N[C@@H](CCCNC(=N)N)C(=O)N[C@@H](CC(C)C)C(=O)N[C@@H](CCCNC(=N)N)C(=O)N[C@@H](C)C(=O)O [AEBP1] (H-YALQQRRLQHRLRLRA-OH),,,"IC50 [1, 7]: 16 µM; IC50 [2, 7]: 110 µM; IC50 [3]: 120 µM; IC50 [4, 7]: 160 µM"
CSCC[C@H](NC(=O)[C@H](CC(C)C)NC(=O)[C@H](C)NC(=O)[C@@H](N)Cc1ccc(O)cc1)C(=O)N[C@@H](CCC(=O)O)C(=O)N[C@@H](CCCNC(=N)N)C(=O)N[C@@H](CCCNC(=N)N)C(=O)N[C@@H](CCCNC(=N)N)C(=O)N[C@@H](CC(C)C)C(=O)N[C@@H](CC(N)=O)C(=O)N[C@@H](CCC(N)=O)C(=O)N[C@@H](CC(C)C)C(=O)N[C@@H](CC(C)C)C(=O)N[C@@H](CC(C)C)C(=O)N1CCC[C@H]1C(=O)N[C@@H](CC(C)C)C(=O)O [ANAPC5] (H-YALMERRRLNQLLLPL-OH),,,"IC50 [1, 7]: 32 µM; IC50 [2, 7]: 340 µM"
CC(C)C[C@H](NC(=O)[C@H](C)NC(=O)[C@@H](N)Cc1ccc(O)cc1)C(=O)NCC(=O)N[C@@H](CO)C(=O)N[C@@H](CCCNC(=N)N)C(=O)N[C@@H](CCCNC(=N)N)C(=O)NCC(=O)N[C@@H](CCCNC(=N)N)C(=O)N[C@@H](CO)C(=O)N[C@@H](CO)C(=O)N[C@@H](CC(C)C)C(=O)N[C@@H](CO)C(=O)N[C@@H](CC(C)C)C(=O)N[C@@H](C)C(=O)N[C@@H](CCCCN)C(=O)O [ARHGEF2],,,IC50 [3]: 300 µM
CC[C@H](C)[C@H](NC(=O)[C@H](C)NC(=O)[C@@H](N)Cc1ccc(O)cc1)C(=O)NCC(=O)N[C@@H](CCCNC(=N)N)C(=O)N[C@@H](C)C(=O)N[C@@H](CCCNC(=N)N)C(=O)N[C@@H](CCCNC(=N)N)C(=O)NCC(=O)N[C@@H](CC(C)C)C(=O)N1CCC[C@H]1C(=O)N[C@@H](CCCNC(=N)N)C(=O)N[C@@H](CC(C)C)C(=O)N[C@@H](C)C(=O)N[C@H](C(=O)N[C@@H](CO)C(=O)N[C@@H](CC(=O)O)C(=O)O)C(C)C [ISG20 peptide G2+] (H-YAIGRARRGLPRLAVSD-OH),,,"IC50 [1, 8]: 120 µM; IC50 [4, 9]: 170 µM"
CC[C@H](C)[C@H](NC(=O)[C@H](C)NC(=O)[C@@H](N)Cc1ccc(O)cc1)C(=O)N[C@@H](CCCNC(=N)N)C(=O)N[C@@H](C)C(=O)N[C@@H](CCCNC(=N)N)C(=O)N[C@@H](CCCNC(=N)N)C(=O)NCC(=O)NCC(=O)N[C@@H](CC(C)C)C(=O)N1CCC[C@H]1C(=O)N[C@@H](CCCNC(=N)N)C(=O)N[C@@H](CC(C)C)C(=O)N[C@@H](C)C(=O)N[C@H](C(=O)N[C@@H](CO)C(=O)N[C@@H](CC(=O)O)C(=O)O)C(C)C [ISG20 peptide G7+] (H-YAIRARRGGLPRLAVSD-OH),,,"IC50 [1, 8]: 75 µM; IC50 ([2]; Table 2, 5 μM reporter peptide, mean of three independent replicates, read-out: IC50, ERK2 R133 K): 170 µM; IC50 [4, 9]: 210 µM"
CC[C@H](C)[C@H](NC(=O)[C@H](C)NC(=O)[C@@H](N)Cc1ccc(O)cc1)C(=O)N[C@@H](CCCNC(=N)N)C(=O)N[C@@H](C)C(=O)N[C@@H](C)C(=O)N[C@@H](CCCNC(=N)N)C(=O)NCC(=O)N[C@@H](CC(C)C)C(=O)N1CCC[C@H]1C(=O)N[C@@H](CCCNC(=N)N)C(=O)N[C@@H](CC(C)C)C(=O)N[C@@H](C)C(=O)N[C@H](C(=O)N[C@@H](CO)C(=O)N[C@@H](CC(=O)O)C(=O)O)C(C)C [ISG20 peptide R4A],,,"IC50 [4, 9]: 300 µM"
CC[C@H](C)[C@H](NC(=O)[C@H](C)NC(=O)[C@@H](N)Cc1ccc(O)cc1)C(=O)N[C@@H](CCCNC(=N)N)C(=O)N[C@@H](C)C(=O)N[C@@H](CCCNC(=N)N)C(=O)N[C@@H](C)C(=O)NCC(=O)N[C@@H](CC(C)C)C(=O)N1CCC[C@H]1C(=O)N[C@@H](CCCNC(=N)N)C(=O)N[C@@H](CC(C)C)C(=O)N[C@@H](C)C(=O)N[C@H](C(=O)N[C@@H](CO)C(=O)N[C@@H](CC(=O)O)C(=O)O)C(C)C [ISG20 peptide R5A],,,"IC50 [4, 9]: 400 µM"
"CLSWKRMAGIFFLP [GLB1L3, D-site 14-mer in ELK1 Y2H prey]",0.781,14.12,
"GSRCARIFRLVLQK [POLR3C, D-site 14-mer in ELK1 Y2H prey]",0.285,6.39,
"HLSRHKIIHIGIHT [ZNF493, D-site 14-mer in ELK1 Y2H prey]",0.221,5.90,
"ILLRRSLEAIELGL [KLC2, D-site 14-mer in ELK1 Y2H prey]",0.282,5.90,
"IRARRGLPRLAVSD [ISG20, D-site 14-mer in ELK1 Y2H prey]",0.761,14.42,
"LWTRRRSERIFLHD [TNRC18, D-site 14-mer in ELK1 Y2H prey]",0.332,7.78,
"LYKRRKESILTIQK [ASPM, D-site 14-mer, start residue 1508, in ELK1 Y2H prey]",0.329,7.80 and 6.10,
"PLFLRRKPVLSFQG [LIG3, D-site 14-mer in ELK1 Y2H prey]",0.487,10.87,
"RLLWRRLKPLILGK [ABCA7, D-site 14-mer in ELK1 Y2H prey]",0.266,5.86,
"RLQERRGSNVALML [PTPN7, D-site 14-mer in ELK1 Y2H prey]",0.474,9.09,
"RLRNRNCLELKIKD [ANKRD12, D-site 14-mer in ELK1 Y2H prey]",0.443,10.11,
"RRMRRAGQALKLPS [HAS3, D-site 14-mer in ELK1 Y2H prey]",0.310,7.82,
"RRRGRPPKRIHISQ [BAZ1A, D-site 14-mer in ELK1 Y2H prey]",0.150,4.55,
"RSKLRKPKPVPLRK [TACC1, D-site 14-mer in ELK1 Y2H prey]",0.162,5.18,
"TRHERNYTKVNFCK [ZNF675, D-site 14-mer in ELK1 Y2H prey]",0.359,7.60,
